Source: US20050075399A1, “Methods and kits for enhancing ability to learn in a puppy or kitten” (The Procter & Gamble Company, priority 2003, published 2005)

Experiments:
Assay type in all cases: in vivo
purebred beagle puppies [1] = assay: Maze test of the ability of puppies to learn in a training environment (success criteria); conditions: puppy and maternal animal
Description: (§1) A study is conducted to determine effect of compositions described herein upon the ability of puppies to learn in a training environment.
Ten purebred beagle puppies are randomized and assigned to Group 1 (n=3), Group 2 (n=3), or Group 3 (n=4). Each of the puppies is about nine weeks of age. Their respective weights are appropriate for age and body size.
Three treatment compositions are utilized for the study. These compositions are: 1) for Group 1, a nutritionally balanced food composition comprising an essential fatty acid component comprising about 0.14% DHA, by weight of the composition; 2) for Group 2, a nutritionally balanced food composition which is similar in all respects except that the essential fatty acid component comprises about 0.08% DHA, by weight of the composition; and 3) for Group 3, a nutritionally balanced food composition which is similar in all respects except that the essential fatty acid component comprises about 0.02% DHA, by weight of the composition.
(§2) The respective maternal animal for each puppy in Group 1 receives, ad libitum, a nutritionally balanced food composition comprising an essential fatty acid component comprising about 0.14% DHA, by weight of the composition, during gestation, nursing, or weaning (or any combination thereof) of such puppy.
as §2, with “2” for “1”, “0.08%” for “0.14%”
as §2, with “3” for “1”, “0.02%” for “0.14%”
Throughout the study, the puppies are fed their respective compositions twice daily. Treats are utilized for training purposes; the treats which are used are PURINA® Puppy Canned Formula.
The study utilizes a room having a maze constructed in general accordance with the maze illustrated in FIG. 2. Referring now to FIG. 2, Point A Crate is a starting area and contains a crate with a door that cannot be seen through. This crate door is easily opened by a study technician. The crate allows immediate entrance into the maze when the door is opened. The crate door is opened either upward or flat, or by some other means such that the maze path is not obstructed. Point B Maze Symbol contains one of two symbols (i.e., a circle and square) indicating to the trained puppy where the treat will be located. The symbol is attached at a height which is easily visualized by the puppy. Point C Treat Pan is the ending location where the treat pan will be located. Point C Treat Pan is the correct designation for a maze designated left. Point D Treat Pan is the ending location where another treat pan will be located. Point D Treat Pan is the correct designation for a maze designated right.
Prior to training, each puppy is randomly assigned two symbol-direction combinations. The possible groupings are identified below as Groups A and B:
Training with assistance takes place for one week. Each puppy is trained in accordance to whether it is a Group A puppy or a Group B puppy. For Group A puppies, the puppy is trained numerous times to learn that if a treat is placed on the circle at Point B Maze Symbol, then another treat is located to the right at Point D Treat Pan. Likewise, for Group A puppies, the puppy is trained the same number of time to learn that if a treat is placed on the square at Point B Maze Symbol, then another treat is located to the left at Point C Treat Pan. Group B puppies will follow this same outline with the exception that sessions with a circle as the symbol will go to the left and a square as the symbol will go right. […]

purebred beagle puppies [2] = assay: Three-door multiple shape testing (symbol as the cue); conditions: for puppies that passed the test on their initial testing: pass = at least 80% correct
Description: as §1
(§3) Twelve purebred beagle puppies are randomized and assigned to either Group 1 or Group 2. Each of Groups 1 and 2 contains six of the puppies. Each of the puppies is about nine weeks of age. Their respective weights are appropriate for age and body size.
(§4) Two treatment compositions are utilized for the study. These compositions are: 1) for Group 1, a nutritionally balanced food composition comprising an essential fatty acid component comprising 0.18% DHA, by weight of the composition; and 2) for Group 2, a nutritionally balanced food composition which is similar in all respects except that the essential fatty acid component comprises 0.02% DHA, by weight of the composition.
(§5) Throughout the study, the puppies are fed their respective compositions ad libitum. Treats are utilized for training purposes; the treats which are used are PURINA® Puppy Canned Formula.
Following location training, each puppy receives two days of shape training, wherein the study shapes are randomly placed on different doors simultaneously. The objective is to determine whether the puppy learns that the symbol is associated with the treat target, not the door location. Following this training, each puppy received two testing sessions to determine ability to identify the symbol as the cue. A puppy is determined to pass if at least 80% of the test is correct. Puppies that failed are given two additional days of training and are retested. A puppy is given a maximum of three attempts to pass the multiple shape testing.
Each puppy is randomly assigned a shape of either a square or a circle. The “correct” door is the door bearing the shape which is assigned to the puppy; the location of the “correct” door is systematically modified throughout the study such that the puppy must learn to identify with the shape rather than the location of the door. The puppies are trained for several days in order to learn the process of choosing the “correct” door within a time period of two minutes. Training occurs with various learning procedures, including placing a trail of treats in front of the “correct” door.
After several days of training, the learning procedures are eliminated and the puppy performs without intervention. The puppy is given two minutes to reach the “correct” door. If the puppy fails to reach the “correct” door within the two minute time period, the puppy receives an incorrect score for that attempt. If the puppy reaches the “correct” door within the two minute time period, the puppy receives a correct score for that attempt.

purebred beagle puppies [3] = assay: Three-door location training test (assigned door); conditions: all puppies regardless of group (0.18% DHA or 0.02% DHA food composition, ad libitum)
Description: as §1, §3, §4, §5
The study utilizes three doors of identical size and shape. Each puppy is randomly assigned to one of three doors along with a random symbol (circle or square) for location training. The objective of the study is to train the puppy to reach the “correct” door, i.e. the door bearing the shape which is assigned to the respective puppy. A box is marked with tape in front of each door. […]

[4] = Group 1 (n=3): food composition about 0.14% DHA
[5] = Group 2 (n=3): food composition about 0.08% DHA
[6] = Group 3 (n=4): food composition about 0.02% DHA
[7] = Group 1 (n=6): food composition 0.18% DHA ad libitum
[8] = Group 2 (n=6): food composition 0.02% DHA ad libitum

## CC/C=C\C/C=C\C/C=C\C/C=C\C/C=C\C/C=C\CCC(=O)O [DHA, docosahexaenoic acid]
Purebred beagle puppies [1]; [4]
  puppies that achieved a single success criteria: 100%
  puppies that achieved two success criteria: 66%
Purebred beagle puppies [1]; [5]
  puppies that achieved a single success criteria: 66%
  puppies that achieved two success criteria: 0%
Purebred beagle puppies [1]; [6]
  puppies that achieved a single success criteria: 50%
  puppies that achieved two success criteria: 0%
Purebred beagle puppies [2]; [7]
  puppies that passed following additional training days: 75%
  puppies that passed the test on their initial testing: 50%
Purebred beagle puppies [2]; [8]
  puppies that passed following additional training days: 45%
  puppies that passed the test on their initial testing: 16%
Purebred beagle puppies [3]
  correct scores in locating the assigned location (door): greater than 90%
